Reference: PubChem BioAssay (NCI)
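Interpolation was linear, between the two tested concentrations surrounding the appropriate level; five concentrations were tested over 48 hours in 96-well plates. GI50: concentration for 50% inhibition of growth. TGI marks complete inhibition of growth.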

Columns and labels:
Assay in all cases: NCI-60 cell line screen, 48 h
HT29 colon = test system: HT29 colon
K-562 leukemia = test system: K-562 leukemia
RXF 393 renal = test system: RXF 393 renal
SF-268 CNS = test system: SF-268 CNS
LOX IMVI melanoma = test system: LOX IMVI melanoma
KM12 colon = test system: KM12 colon
SNB-75 CNS = test system: SNB-75 CNS
MDA-MB-435 = test system: MDA-MB-435
DU-145 prostate = test system: DU-145 prostate
PC-3 prostate = test system: PC-3 prostate

Structure (SMILES) | GI50 (HT29 colon) [nM] | TGI (HT29 colon) [µM] | GI50 (K-562 leukemia) [µM] | TGI (K-562 leukemia) [µM] | GI50 (RXF 393 renal) [nM] | TGI (RXF 393 renal) [µM] | GI50 (SF-268 CNS) [µM] | TGI (SF-268 CNS) [µM] | GI50 (LOX IMVI melanoma) [µM] | TGI (LOX IMVI melanoma) [µM] | GI50 (KM12 colon) [µM] | TGI (KM12 colon) [µM] | GI50 (SNB-75 CNS) [nM] | TGI (SNB-75 CNS) [µM] | GI50 (MDA-MB-435) [µM] | TGI (MDA-MB-435) [µM] | GI50 (DU-145 prostate) [µM] | TGI (DU-145 prostate) [µM] | GI50 (PC-3 prostate) [nM] | TGI (PC-3 prostate) [µM]
CC(=O)[O-].O=[N+]([O-])c1ccc([O-])c(C=NCCN=Cc2cc([N+](=O)[O-])ccc2[O-])c1.[Mn+3] | > 100000 | > 100 | > 100 | > 100 | > 100000 | > 100 | > 100 | > 100 | 75.8 | > 100 | > 100 | > 100 | > 100000 | > 100 | – | – | – | – | – | –
C=C1c2ccccc2N(S(=O)(=O)c2ccc(C)cc2)C12CCCCC2 | – | > 100 | – | > 100 | – | > 100 | – | > 100 | – | > 100 | – | > 100 | – | > 100 | – | – | – | – | – | –
N#CC1=C(N)Oc2c(sc3c(Br)cccc23)C1c1ccc(F)cc1 (centres undefined) | 367 | 10.3 | 0.275 | 23.9 | – | – | 1.75 | 24.2 | 0.695 | 15.2 | 0.361 | 15.2 | 327 | 18.9 | 0.0691 | 11.2 | 0.333 | 10.6 | 405 | 18.1
O=C1[C@H]2ON(c3ccccc3)C(c3cccc([N+](=O)[O-])c3)[C@H]2C(=O)N1c1ccc(Cc2ccc(N3C(=O)[C@@H]4ON(c5ccccc5)C(c5cccc([N+](=O)[O-])c5)[C@@H]4C3=O)cc2)cc1 (some centres undefined) | – | > 100 | – | > 100 | – | > 100 | – | > 100 | – | > 100 | – | > 100 | – | > 100 | – | – | – | – | – | –
C/C(=N\O)[C@H]1CC[C@@]2(C)[C@@H]3CC[C@H]4C(C)(C)/C(=N/O)CC[C@@]45CC35CC[C@]12C (some centres undefined) | 5560 | > 16.7 | 3.42 | > 16.7 | 4020 | 9.67 | 4.16 | 14.1 | 0.759 | 4.1 | 2.84 | 7.03 | 7460 | 14.8 | – | – | 2.85 | 6.2 | 2330 | 6.9
COc1ccccc1-c1nccc(COc2ccccc2C[C@@H](Oc2ncnc3sc(-c4ccc(F)cc4)c(-c4ccc(OCCN5CCN(C)CC5)c(Cl)c4C)c23)C(=O)O)n1 | 2650 | 7.09 | 3.01 | > 33.6 | 610 | 2.16 | 3.69 | 17.5 | – | – | 3.33 | 12.1 | 34.8 | 1.29 | 0.45 | 2.21 | 5.84 | 13.9 | 1960 | 4.81
O=c1ncccn1C1OC(CO)C(O)C1F (centres undefined) | – | > 100 | > 100 | > 100 | – | > 100 | – | > 100 | – | > 100 | > 100 | > 100 | – | > 100 | – | – | – | – | – | –
CC12O[Te]34OC1(C)C(C)(O3)C2(C)O4 | – | 30.3 | – | – | – | 27 | – | 23.9 | – | 16.4 | – | 27.4 | – | > 8.75 | – | – | – | – | – | –
O=C1OC(c2ccc(Cl)c3ccccc23)c2ccccc21 (centres undefined) | – | > 100 | – | > 100 | – | > 100 | – | > 100 | – | – | – | > 100 | – | 51.1 | – | – | – | – | – | –
C=CCN(N=O)C(=O)ON1C(=O)CCC1=O | – | > 100 | – | > 100 | – | > 100 | – | > 100 | – | > 100 | – | > 100 | – | > 100 | – | – | – | – | – | –
O=C1Nc2ccc(Br)cc2C1=Nc1ccc(Cl)cc1 | – | 38.5 | – | 73.3 | – | 40.1 | – | 55.8 | – | 31.8 | – | 24.8 | – | – | – | 20.6 | – | > 100 | – | > 100
CC1(C)Oc2ccccc2N2O[C@@H]3C(=O)N(c4ccccc4)C(=O)[C@@H]3C21c1ccccc1 (some centres undefined) | – | 68.5 | – | > 100 | – | 60.8 | – | > 100 | – | – | – | > 100 | – | 35.3 | – | – | – | – | – | –
Cc1nnc(N=Nc2c(O)[nH]c3ccccc23)[nH]c1=O | – | > 100 | – | > 100 | – | – | – | > 100 | – | > 100 | – | > 100 | – | – | – | > 100 | – | > 100 | – | > 100
CCC1(Cl)C(=O)NC(=O)N(C2CC(O)C(CO)O2)C1N=[N+]=[N-] (centres undefined) | – | > 100 | – | > 100 | – | > 100 | – | > 100 | – | > 100 | – | – | – | > 100 | – | – | – | – | – | –
Nc1nc(Cl)cc(NCCCCCCNc2cc(Cl)nc(N)n2)n1 | – | > 100 | – | > 100 | – | > 100 | – | – | – | > 100 | – | > 100 | – | > 100 | – | – | – | – | – | –
Cc1ccc(S(=O)c2ccc([N+](=O)[O-])c3nonc23)cc1 (centres undefined) | 4080 | 22 | 3.02 | 9.18 | 2330 | 5.53 | 15 | 29.9 | 5.88 | 19.2 | 15.8 | 31.1 | – | – | 10.2 | 26 | 7.87 | 20.9 | 12800 | 27.1
CCOc1ccccc1NC(=O)CCC(=O)NN | – | > 100 | – | > 100 | – | > 100 | – | > 100 | – | > 100 | – | > 100 | – | > 100 | – | – | – | – | – | –
Cc1cc(S(N)(=O)=O)c(S/C(=N\NS(=O)(=O)c2ccccc2)c2ccc(Cl)c(Cl)c2)cc1Cl | – | – | 32.9 | > 100 | 33300 | > 100 | 33.8 | > 100 | 36.1 | > 100 | 42 | > 100 | – | – | 42.9 | > 100 | 54.2 | > 100 | 47400 | > 100
O=c1/c(=C/c2ccc3c(c2)OCO3)sc2nnc(Cc3ccccc3)n12 | – | – | – | > 100 | – | > 100 | – | > 100 | – | > 100 | – | > 100 | – | > 100 | – | – | – | – | – | –
COc1ccc(-c2conc2-c2ccccc2)cc1 | 112 | > 100 | 0.0603 | > 100 | 249 | > 100 | 1.67 | > 100 | 0.612 | > 100 | 0.108 | 11 | 109 | 0.455 | – | – | 0.416 | – | 363 | > 100
